From article PMC8651256 (Environmental science & technology, 2021)
Entries after “also recorded” stand apart in the source; their conditions may differ.

Assays:
[1] = target: human serum albumin (HSA) (Homo sapiens, UniProt P02768); test: Differential scanning fluorimetry; conditions: for EC50 / ΔTm / Kd / HSA binding (in words): 0.125 mM HSA; for EC50: 4-parameter variable slope model; for EC50 / Kd: mean ± SD; for ΔTm: maximal melting temperature shift; for HSA binding (in words): DSF; for thermal shift profile at different reaction volumes (volatility check): volumes of 10, 20, 50 and 200 μL per sealed well
[2] = DMSO as solvent; cited from earlier work
[3] = PFAS, single-site ligand binding model

Chain of human serum albumin (HSA) (P02768 25-609): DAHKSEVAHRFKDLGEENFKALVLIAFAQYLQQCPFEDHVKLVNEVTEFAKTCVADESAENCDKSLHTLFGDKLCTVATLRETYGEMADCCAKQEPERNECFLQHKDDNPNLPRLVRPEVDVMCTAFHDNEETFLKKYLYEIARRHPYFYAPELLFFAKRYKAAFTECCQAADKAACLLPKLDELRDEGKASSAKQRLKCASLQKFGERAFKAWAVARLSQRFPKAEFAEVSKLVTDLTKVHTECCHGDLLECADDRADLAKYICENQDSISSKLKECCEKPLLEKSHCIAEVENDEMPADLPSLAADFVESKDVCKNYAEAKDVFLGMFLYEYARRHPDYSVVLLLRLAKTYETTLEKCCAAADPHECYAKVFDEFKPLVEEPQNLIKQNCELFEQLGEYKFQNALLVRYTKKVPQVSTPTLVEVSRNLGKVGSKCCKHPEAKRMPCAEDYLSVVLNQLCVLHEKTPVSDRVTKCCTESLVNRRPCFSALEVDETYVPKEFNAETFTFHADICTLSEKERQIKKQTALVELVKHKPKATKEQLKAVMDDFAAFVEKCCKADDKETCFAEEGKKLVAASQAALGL

Row | SMILES | EC50 ([1]; PFAS) | ΔTm ([1]; PFAS) | Kd [1, 3] | other results
1 | O=C(O)C(F)(F)C(F)(F)C(F)(F)C(F)(F)F [PFPeA, perfluoropentanoic acid] | 2140 ± 420 µM | 13.1 ± 0.066 °C | 2100 ± 560 µM | 
2 | O=C(O)CCC(F)(F)C(F)(F)C(F)(F)C(F)(F)C(F)(F)C(F)(F)C(F)(F)C(F)(F)F [8:3 FTCA, 2,H,2H,3H,3H-perfluoroundecanoate] | 1160 ± 420 µM | 10.01 ± 0.17 °C | 970 ± 170 µM | 
3 | O=C(O)C(F)(F)C(F)(F)C(F)(F)C(F)(F)C(F)(F)C(F)(F)C(F)(F)C(F)(F)C(F)(F)C(F)(F)F [PFunDA, Perfluoroundecanoic acid] | 1490 ± 48 µM | 9.02 ± 0.47 °C | 1360 ± 1060 µM | 
4 | O=C(O)CCC(F)(F)C(F)(F)C(F)(F)C(F)(F)C(F)(F)F [5:3 FTCA, 2H,2H,3H,3H-perfluorooctanoic acid] | 1480 ± 240 µM | 3.62 ± 0.14 °C | 620 ± 100 µM | 
5 | O=C(O)CCC(F)(F)C(F)(F)C(F)(F)C(F)(F)C(F)(F)C(F)(F)F [6:3 FTCA, 2,H,2H,3H,3H-perfluorononanoic acid] | 840 ± 210 µM | 9.50 ± 0.20 °C | 810 ± 230 µM | 
6 | O=C(O)C(F)(F)C(F)(F)C(F)(F)F [PFBA, perfluorobutanoic acid] | 2610 ± 470 µM | 6.48 ± 0.18 °C | 2570 ± 780 µM | 
7 | O=S(=O)(O)CCC(F)(F)C(F)(F)C(F)(F)C(F)(F)F [4:2 FTSA, 2H,2H,3H,3H-perfluorohexanesulfonic acid] | 1450 ± 340 µM | 3.49 ± 0.12 °C | 1070 ± 470 µM | 
8 | FC(OC(F)(F)C(F)(F)C(F)(F)F)C(F)(F)F (stereo not shown) [E1, 1,1,1,2,2,3,3-heptafluoro-3-(1,2,2,2-tetrafluoroethoxy)propane] |  |  |  | HSA binding (in words) [1]: bound by albumin; EC50 ([1]; EC50, PFAS): 2340 ± 560 µM
9 | O=S(=O)(O)C(F)(F)C(F)(F)C(F)(F)C(F)(F)C(F)(F)C(F)(F)C(F)(F)C(F)(F)F [PFOS, perfluorooctanesulfonic acid] | 1130 ± 320 µM | 16.2 ± 0.90 °C |  | 
10 | O=C(O)C(F)(F)C(F)(F)C(F)(F)C(F)(F)C(F)(F)C(F)(F)C(F)(F)C(F)(F)F [PFNA, perfluorononanoic acid] | 600 ± 230 µM | 13.4 ± 0.34 °C | 580 ± 210 µM | 
11 | O=S(=O)(O)C(F)(F)C(F)(F)C(F)(F)C(F)(F)C(F)(F)C(F)(F)F [PFHxS, perfluorohexanesulfonic acid] |  |  |  | thermal shift profile at different reaction volumes (volatility check) [1]: no differences
12 | O=S(=O)(O)CCC(F)(F)C(F)(F)C(F)(F)C(F)(F)C(F)(F)C(F)(F)F [6:2 FTSA, 2H,2H,3H,3H-perfluorooctane-1-sulfonate] | 470 ± 290 µM | 3.60 ± 0.47 °C | 370 ± 340 µM | thermal shift profile at different reaction volumes (volatility check) [1]: no differences
13 | OCCC(F)(F)C(F)(F)C(F)(F)C(F)(F)F [4:2 FTOH, 1H,1H,2H,2H-perfluorohexane-1-ol] |  | 0 ± 0 °C |  | HSA binding (in words) [1]: not bound by HSA; also recorded: did not bind HSA; thermal shift profile at different reaction volumes (volatility check) [1]: no differences
14 | O=C(O)C(F)(F)C(F)(F)C(F)(F)C(F)(F)C(F)(F)C(F)(F)C(F)(F)F [PFOA, perfluorooctanoic acid] |  |  |  | EC50 ([1]; EC50, PFAS): 840 ± 150 µM; Kd ([1]; Kd, PFOA stock in HEPES-buffered saline (HBS)): 830 ± 270 µM; Kd ([1]; Kd, PFOA stock in methanol (30% in HBS)): 830 ± 150 µM
15 | O=C(O)C(F)(F)C(F)(F)C(F)(F)C(F)(F)C(F)(F)F [PFHxA, Perfluorohexanoic acid] | 1400 ± 270 µM | 10.6 ± 0.24 °C | 1640 ± 470 µM | 
16 | O=S(=O)(O)C(F)(F)C(F)(F)C(F)(F)C(F)(F)F [PFBS, perfluorobutanesulfonic acid] | 1720 ± 560 µM | 11.9 ± 0.11 °C | 1650 ± 690 µM | 
17 | O=C(O)CCC(F)(F)C(F)(F)C(F)(F)F [3:3 FTCA, 2H,2H,3H,3H-perfluorohexanoic acid] | 2060 ± 510 µM | 2.24 ± 0.062 °C | 1710 ± 470 µM | 
18 | O=S(=O)(O)C(F)(F)C(F)(F)OC(F)(C(F)(F)F)C(F)(F)OC(F)C(F)(F)F (stereo not shown) [Nafion bp2] | 1900 ± 590 µM | 12.4 ± 0.17 °C | 1510 ± 370 µM | 
19 | O=C(O)C(F)(OC(F)(F)C(F)(F)C(F)(F)F)C(F)(F)F (stereo not shown) [HFPO-DA, hexafluoropropylene oxide dimer acid] | 1830 ± 870 µM | 13.7 ± 0.17 °C | 1600 ± 550 µM | time to rapid and complete conversion of HFPO-DA to E1 [2]: under 4 h
20 | O=C(O)C(F)(F)C(F)(F)C(F)(F)C(F)(F)C(F)(F)C(F)(F)C(F)(F)C(F)(F)C(F)(F)F [PFDA, perfluorodecanoic acid] | 1110 ± 170 µM | 17.2 ± 0.13 °C | 1190 ± 590 µM | 
21 | OCCC(F)(F)C(F)(F)C(F)(F)C(F)(F)C(F)(F)C(F)(F)F [6:2 FTOH, 1H,1H,2H,2H-perfluorooctanol] |  | 0 ± 0 °C |  | HSA binding (in words) [1]: not bound by HSA; also recorded: did not bind HSA; thermal shift profile at different reaction volumes (volatility check) [1]: no differences
